Results from ChEMBL document CHEMBL5338718, “Design and exploration of gut-restricted bifunctional molecule with TGR5 agonistic and DPP4 inhibitory effects for treating ulcerative colitis” (Eur J Med Chem, 2022).
The source made the active and inactive calls. The calls are words filed in the database; no cut-off is given here.

Key:
[1] = biological target: T1, G-protein coupled bile acid receptor 1 (Homo sapiens, UniProt Q8TDU6); test: Agonist activity at human TGR5 expressed in human HEK293 cells co-expressing CRE-driven luciferase reporter gene assessed as luciferase activity incubated for 5.5 hrs by Steady-Glo based luciferase assay; assay type: functional, cell-based
T1 sequence (Q8TDU6 whole entry): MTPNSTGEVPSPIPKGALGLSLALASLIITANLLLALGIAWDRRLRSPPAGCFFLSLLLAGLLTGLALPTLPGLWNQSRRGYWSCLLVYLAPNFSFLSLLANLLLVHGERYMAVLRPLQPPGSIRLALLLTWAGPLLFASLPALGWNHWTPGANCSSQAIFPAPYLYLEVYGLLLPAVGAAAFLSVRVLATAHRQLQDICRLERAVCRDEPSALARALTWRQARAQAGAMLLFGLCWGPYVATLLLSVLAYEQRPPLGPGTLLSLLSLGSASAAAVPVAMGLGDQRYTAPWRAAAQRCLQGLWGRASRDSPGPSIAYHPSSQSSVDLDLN

[2] = biological target: T2, G-protein coupled bile acid receptor 1 (Mus musculus, UniProt Q80SS6); test: Agonist activity at mouse TGR5 expressed in human HEK293 cells co-expressing CRE-driven luciferase reporter gene assessed as luciferase activity incubated for 5.5 hrs by Steady-Glo based luciferase assay; assay type: functional, cell-based
T2 sequence (Q80SS6 whole entry): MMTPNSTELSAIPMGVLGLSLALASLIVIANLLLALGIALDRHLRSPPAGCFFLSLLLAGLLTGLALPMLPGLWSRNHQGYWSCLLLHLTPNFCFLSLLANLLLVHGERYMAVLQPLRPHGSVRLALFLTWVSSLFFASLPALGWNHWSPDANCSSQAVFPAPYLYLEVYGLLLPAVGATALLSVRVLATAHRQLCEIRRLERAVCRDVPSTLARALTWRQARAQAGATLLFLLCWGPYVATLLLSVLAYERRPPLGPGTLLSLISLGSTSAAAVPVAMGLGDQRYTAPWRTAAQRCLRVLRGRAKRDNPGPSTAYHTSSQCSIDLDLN

Dipeptidyl peptidase 4 = Dipeptidyl peptidase 4 (Mus musculus, UniProt P28843); test: Inhibition of mouse serum DPP4 assessed as cleavage of substrate by measuring AMC release using Gly-Pro-AMC as substrate by fluorescence based microplate reader assay; assay type: cell-free
Mus musculus [3] = test: In vivo inhibition of DDP4 in ICR mouse assessed as decrease in enzyme activity in serum at 200 mg/kg,po and measured at 2 hrs using Gly-Pro-AMC as substrate by fluorescence based microplate reader assay; assay type: functional, organism-based
Mus musculus [4] = test: In vivo inhibition of DDP4 in ICR mouse assessed as decrease in enzyme activity in serum at 200 mg/kg,po and measured at 4 hrs using Gly-Pro-AMC as substrate by fluorescence based microplate reader assay; assay type: functional, organism-based
Mus musculus [5] = test: In vivo inhibition of DDP4 in ICR mouse assessed as decrease in enzyme activity in serum at 200 mg/kg,po and measured after 8 hrs using Gly-Pro-AMC as substrate by fluorescence based microplate reader assay; assay type: functional, organism-based
Mus musculus [6] = test: In vivo inhibition of DDP4 in ICR mouse assessed as decrease in enzyme activity in ileum at 200 mg/kg,po and measured after 8 hrs using Gly-Pro-AMC as substrate by fluorescence based microplate reader assay; assay type: functional, organism-based
Mus musculus [7] = test: In vivo inhibition of DDP4 in ICR mouse assessed as decrease in enzyme activity in ileum at 30 mg/kg,po and measured after 8 hrs using Gly-Pro-AMC as substrate by fluorescence based microplate reader assay; assay type: functional, organism-based
Mus musculus [8] = test: Induction of gut restriction in overnight fasted ICR mouse assessed as effect on gallbladder-filling by measuring gallbladder volume at 50 mg/kg, po and measured after 4 hrs by Vernier caliper analysis; assay type: functional, organism-based
Mus musculus [9] = test: Induction of gut restriction in overnight fasted ICR mouse assessed as effect on gallbladder-filling by measuring bile weight at 50 mg/kg, po and measured after 4 hrs by Vernier caliper analysis; assay type: functional, organism-based
[10] = Water solubility at pH 6.8; assay type: physicochemical

Chain of Dipeptidyl peptidase 4 (P28843 whole entry): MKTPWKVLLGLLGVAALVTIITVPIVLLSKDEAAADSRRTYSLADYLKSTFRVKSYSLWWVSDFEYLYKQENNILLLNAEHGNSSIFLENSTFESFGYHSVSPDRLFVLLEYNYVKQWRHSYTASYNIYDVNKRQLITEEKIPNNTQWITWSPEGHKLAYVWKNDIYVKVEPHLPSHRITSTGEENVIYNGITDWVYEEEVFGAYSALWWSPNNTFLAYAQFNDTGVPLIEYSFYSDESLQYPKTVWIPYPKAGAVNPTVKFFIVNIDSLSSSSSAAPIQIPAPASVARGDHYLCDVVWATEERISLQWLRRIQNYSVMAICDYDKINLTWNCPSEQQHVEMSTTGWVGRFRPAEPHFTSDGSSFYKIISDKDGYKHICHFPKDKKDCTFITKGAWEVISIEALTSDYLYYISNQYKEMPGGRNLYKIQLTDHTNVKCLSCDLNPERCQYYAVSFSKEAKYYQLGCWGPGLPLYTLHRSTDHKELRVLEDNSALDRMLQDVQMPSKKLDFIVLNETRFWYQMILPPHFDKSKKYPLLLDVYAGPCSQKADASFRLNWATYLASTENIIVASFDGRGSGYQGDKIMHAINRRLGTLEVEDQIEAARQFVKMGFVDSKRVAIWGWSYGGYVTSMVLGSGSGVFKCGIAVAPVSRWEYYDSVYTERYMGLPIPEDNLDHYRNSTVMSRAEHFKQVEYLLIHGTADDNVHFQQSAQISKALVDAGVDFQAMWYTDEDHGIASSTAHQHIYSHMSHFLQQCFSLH

Row | SMILES | EC50 [1] | EC50 [2] | IC50 (Dipeptidyl peptidase 4) | solubility [10] | other results
1 | O=C(O)CCc1cc(Cl)c(Oc2ccsc2C(=O)N2CCN(C3CC3)c3ccccc32)cc1Cl | 11.2 nM | 10.5 nM | > 10000 nM |  | 
2 | N[C@@H](CC(=O)N1CCn2c(nnc2C(F)(F)F)C1)Cc1cc(F)c(F)cc1F |  |  |  |  | inhibition (Mus musculus [3]): Active; inhibition (Mus musculus [4]): Active; inhibition (Mus musculus [5]): Active; inhibition (Mus musculus [6]): Active; inhibition (Mus musculus [7]): Active
3 | O=C(c1cnccc1Oc1cc(Cl)ccc1Cl)N1CCN(C2CC2)c2ccccc21 |  |  |  |  | Activity (Mus musculus [8]): inactive; Activity (Mus musculus [9]): inactive
4 | CC1C(=O)NCCCN1C(=O)C[C@H](N)Cc1cc(F)c(F)cc1F (mixture of isomers) | > 1000 nM | > 1000 nM | 10.4 nM |  | 
5 | N[C@@H](CC(=O)N1CCCN(CC(=O)NCCOCCOCCOCCOCCOCCOCCOCCNC(=O)CCc2cc(Cl)c(Oc3ccsc3C(=O)N3CCN(C4CC4)c4ccccc43)cc2Cl)C(=O)C1Cc1ccccc1)Cc1cc(F)c(F)cc1F (mixture of isomers) | 3.6 nM | 2.1 nM | 103 nM | 20 µM | 
6 | CC1C(=O)N(CC(=O)NCCOCCOCCOCCOCCOCCOCCOCCOCCNC(=O)CCc2cc(Cl)c(Oc3ccsc3C(=O)N3CCN(C4CC4)c4ccccc43)cc2Cl)CCCN1C(=O)C[C@H](N)Cc1cc(F)c(F)cc1F (mixture of isomers) | 3.2 nM | 2.4 nM | 64.8 nM | 50 µM | 
7 | N[C@@H](CC(=O)N1CCCNC(=O)C1Cc1ccccc1)Cc1cc(F)c(F)cc1F (mixture of isomers) |  |  | 0.8 nM |  | 
8 | N[C@@H](CC(=O)N1CCCN(CC(=O)NCCOCCOCCOCCNC(=O)CCc2cc(Cl)c(Oc3ccsc3C(=O)N3CCN(C4CC4)c4ccccc43)cc2Cl)C(=O)C1Cc1ccccc1)Cc1cc(F)c(F)cc1F (mixture of isomers) | 6.1 nM | 3.7 nM | 113 nM | 10 µM | 
9 | CC1C(=O)N(CC(=O)NCCOCCOCCOCCOCCOCCOCCNC(=O)CCc2cc(Cl)c(Oc3ccsc3C(=O)N3CCN(C4CC4)c4ccccc43)cc2Cl)CCCN1C(=O)C[C@H](N)Cc1cc(F)c(F)cc1F.F (mixture of isomers) | 2.8 nM | 2.3 nM | 60.1 nM | 50 µM | 
10 | N[C@@H](CC(=O)N1CCCN(CC(=O)NCCOCCOCCOCCOCCOCCOCCNC(=O)CCc2cc(Cl)c(Oc3ccsc3C(=O)N3CCN(C4CC4)c4ccccc43)cc2Cl)C(=O)C1Cc1ccccc1)Cc1cc(F)c(F)cc1F (mixture of isomers) | 3.7 nM | 2.3 nM | 112 nM | 20 µM | 
11 | C.N[C@@H](CC(=O)N1CCCN(CC(=O)NCCOCCOCCOCCOCCOCCOCCOCCOCCNC(=O)CCc2cc(Cl)c(Oc3ccsc3C(=O)N3CCN(C4CC4)c4ccccc43)cc2Cl)C(=O)C1Cc1ccccc1)Cc1cc(F)c(F)cc1F (mixture of isomers) | 3.8 nM | 2.3 nM | 104 nM |  | 
12 | CC1C(=O)N(CC(=O)NCCOCCOCCOCCOCCOCCNC(=O)CCc2cc(Cl)c(Oc3ccsc3C(=O)N3CCN(C4CC4)c4ccccc43)cc2Cl)CCCN1C(=O)C[C@H](N)Cc1cc(F)c(F)cc1F (mixture of isomers) | 2.5 nM | 2.3 nM | 57.5 nM | 50 µM | 
13 | CC1C(=O)N(CC(=O)NCCOCCOCCOCCNC(=O)CCc2cc(Cl)c(Oc3ccsc3C(=O)N3CCN(C4CC4)c4ccccc43)cc2Cl)CCCN1C(=O)C[C@H](N)Cc1cc(F)c(F)cc1F (mixture of isomers) | 4.5 nM | 4.3 nM | 119 nM |  | 
14 | CC1C(=O)N(CC(=O)NCCOCCOCCOCCOCCOCCOCCOCCNC(=O)CCc2cc(Cl)c(Oc3ccsc3C(=O)N3CCN(C4CC4)c4ccccc43)cc2Cl)CCCN1C(=O)C[C@H](N)Cc1cc(F)c(F)cc1F (mixture of isomers) | 2.8 nM | 2.1 nM | 54.8 nM | 50 µM | 
15 | N[C@@H](CC(=O)N1CCCN(CC(=O)NCCOCCOCCOCCOCCOCCNC(=O)CCc2cc(Cl)c(Oc3ccsc3C(=O)N3CCN(C4CC4)c4ccccc43)cc2Cl)C(=O)C1Cc1ccccc1)Cc1cc(F)c(F)cc1F (mixture of isomers) | 4.9 nM | 2.7 nM | 124 nM | 10 µM | 
16 | CC1C(=O)N(CC(=O)NCCN(C)C(=O)CCc2cc(Cl)c(Oc3ccsc3C(=O)N3CCN(C4CC4)c4ccccc43)cc2Cl)CCCN1C(=O)C[C@H](N)Cc1cc(F)c(F)cc1F (mixture of isomers) | 14.9 nM | 6 nM | 224 nM |  | 
